Results taken from PubChem BioAssay (NCI).
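Here, GI50 denotes the concentration required for 50% inhibition of growth. Definition used: TGI = concentration required for complete inhibition of growth.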

Key:
Test in all cases: DTP human tumour cell line panel, 384-well format
HOP-62 NSCLC = tested on: HOP-62 NSCLC
PC-3 prostate = tested on: PC-3 prostate
LOX IMVI melanoma = tested on: LOX IMVI melanoma
OVCAR-4 ovarian = tested on: OVCAR-4 ovarian
SK-MEL-28 melanoma = tested on: SK-MEL-28 melanoma
SW-620 colon = tested on: SW-620 colon
MALME-3M melanoma = tested on: MALME-3M melanoma
NCI-H322M lung = tested on: NCI-H322M lung
HL-60(TB) leukemia = tested on: HL-60(TB) leukemia
786-0 renal = tested on: 786-0 renal
HCC-2998 colon = tested on: HCC-2998 colon
U251 glioblastoma = tested on: U251 glioblastoma
OVCAR-3 ovarian = tested on: OVCAR-3 ovarian
CAKI-1 renal = tested on: CAKI-1 renal
HOP-92 NSCLC = tested on: HOP-92 NSCLC
CCRF-CEM leukemia = tested on: CCRF-CEM leukemia
NCI-H23 lung = tested on: NCI-H23 lung
SF-539 CNS = tested on: SF-539 CNS
COLO 205 colon = tested on: COLO 205 colon
A549 NSCLC = tested on: A549 NSCLC
HCT-116 colon = tested on: HCT-116 colon
RXF 393 renal = tested on: RXF 393 renal
SK-MEL-2 melanoma = tested on: SK-MEL-2 melanoma
HCT-15 colon = tested on: HCT-15 colon
NCI-H226 lung = tested on: NCI-H226 lung
MDA-MB-468 breast = tested on: MDA-MB-468 breast
K-562 leukemia = tested on: K-562 leukemia
MDA-MB-231 breast = tested on: MDA-MB-231 breast
IGROV1 ovarian = tested on: IGROV1 ovarian
UACC-257 melanoma = tested on: UACC-257 melanoma
OVCAR-8 ovarian = tested on: OVCAR-8 ovarian
SNB-19 CNS = tested on: SNB-19 CNS
A498 renal = tested on: A498 renal
M14 melanoma = tested on: M14 melanoma
SN12C renal = tested on: SN12C renal
MOLT-4 leukemia = tested on: MOLT-4 leukemia
KM12 colon = tested on: KM12 colon
HT29 colon = tested on: HT29 colon
NCI/ADR-RES ovarian = tested on: NCI/ADR-RES ovarian
UO-31 renal = tested on: UO-31 renal
RPMI-8226 leukemia = tested on: RPMI-8226 leukemia
TK-10 renal = tested on: TK-10 renal
SK-MEL-5 melanoma = tested on: SK-MEL-5 melanoma
NCI-H460 NSCLC = tested on: NCI-H460 NSCLC
DU-145 prostate = tested on: DU-145 prostate
SR leukemia = tested on: SR leukemia
ACHN renal = tested on: ACHN renal
SF-295 CNS = tested on: SF-295 CNS
UACC-62 melanoma = tested on: UACC-62 melanoma
SF-268 CNS = tested on: SF-268 CNS
MDA-MB-435 melanoma = tested on: MDA-MB-435 melanoma
MCF7 breast = tested on: MCF7 breast
NCI-H522 lung = tested on: NCI-H522 lung
OVCAR-5 ovarian = tested on: OVCAR-5 ovarian
T-47D breast = tested on: T-47D breast

CN[C@@H](C)C(=O)N[C@H]1CN(S(=O)(=O)c2cccc(S(=O)(=O)N3CC[C@H]4CC[C@@H](C(=O)NC(c5ccccc5)c5ccccc5)N4C(=O)[C@@H](NC(=O)[C@H](C)NC)C3)c2)CC[C@H]2CC[C@@H](C(=O)NC(c3ccccc3)c3ccccc3)N2C1=O
GI50 (HOP-62 NSCLC): 0.57 µM | TGI (HOP-62 NSCLC): 4.56 µM | GI50 (PC-3 prostate): 15.5 µM | TGI (PC-3 prostate): 28.9 µM | GI50 (LOX IMVI melanoma): 13 µM | TGI (LOX IMVI melanoma): 25.7 µM | GI50 (OVCAR-4 ovarian): < 0.01 µM | TGI (OVCAR-4 ovarian): < 0.01 µM | GI50 (SK-MEL-28 melanoma): 12.6 µM | TGI (SK-MEL-28 melanoma): 25.2 µM | GI50 (SW-620 colon): 37.7 µM | TGI (SW-620 colon): > 100 µM | GI50 (MALME-3M melanoma): < 0.01 µM | TGI (MALME-3M melanoma): 0.0336 µM | GI50 (NCI-H322M lung): 16.6 µM | TGI (NCI-H322M lung): 30.3 µM | GI50 (HL-60(TB) leukemia): < 0.01 µM | TGI (HL-60(TB) leukemia): < 0.01 µM | GI50 ([…]-0 renal): 23.5 µM | TGI (786-0 renal): 62.8 µM | GI50 (HCC-2998 colon): 11.7 µM | TGI (HCC-2998 colon): 24 µM | GI50 (U251 glioblastoma): 12.6 µM | TGI (U251 glioblastoma): 25.9 µM | GI50 (OVCAR-3 ovarian): 2.17 µM | TGI (OVCAR-3 ovarian): 17.6 µM | GI50 (CAKI-1 renal): > 100 µM | TGI (CAKI-1 renal): > 100 µM | GI50 (HOP-92 NSCLC): 0.242 µM | TGI (HOP-92 NSCLC): 2.69 µM | GI50 (CCRF-CEM leukemia): 0.0133 µM | TGI (CCRF-CEM leukemia): 1.46 µM | GI50 (NCI-H23 lung): 0.0315 µM | TGI (NCI-H23 lung): 0.459 µM | GI50 (SF-539 CNS): 16.6 µM | TGI (SF-539 CNS): 30.2 µM | GI50 (COLO 205 colon): 12.5 µM | TGI (COLO 205 colon): 26 µM | GI50 (A549 NSCLC): 46.6 µM | TGI (A549 NSCLC): > 100 µM | GI50 (HCT-116 colon): 23.7 µM | TGI (HCT-116 colon): 87.5 µM | GI50 (RXF 393 renal): < 0.01 µM | TGI (RXF 393 renal): 0.073 µM | GI50 (SK-MEL-2 melanoma): < 0.01 µM | TGI (SK-MEL-2 melanoma): < 0.01 µM | GI50 (HCT-15 colon): > 100 µM | TGI (HCT-15 colon): > 100 µM | GI50 (NCI-H226 lung): 17.4 µM | TGI (NCI-H226 lung): 47.7 µM | GI50 (MDA-MB-468 breast): < 0.01 µM | TGI (MDA-MB-468 breast): 0.0196 µM | GI50 (K-562 leukemia): 4.42 µM | TGI (K-562 leukemia): 22.4 µM | GI50 (MDA-MB-231 breast): < 0.01 µM | TGI (MDA-MB-231 breast): < 0.01 µM | GI50 (IGROV1 ovarian): 16.1 µM | TGI (IGROV1 ovarian): 30.3 µM | GI50 (UACC-257 melanoma): 11.7 µM | TGI (UACC-257 melanoma): 24.4 µM | GI50 (OVCAR-8 ovarian): 2.24 µM | TGI (OVCAR-8 ovarian): 19.3 µM | GI50 (SNB-19 CNS): 16.6 µM | TGI (SNB-19 CNS): 30.2 µM | GI50 (A498 renal): 35.8 µM | TGI (A498 renal): > 100 µM | GI50 (M14 melanoma): 20.3 µM | TGI (M14 melanoma): 44.9 µM | GI50 (SN12C renal): 20.8 µM | TGI (SN12C renal): 37.3 µM | GI50 (MOLT-4 leukemia): 6.56 µM | TGI (MOLT-4 leukemia): 18.6 µM | GI50 (KM12 colon): 12.4 µM | TGI (KM12 colon): 24.9 µM | GI50 (HT29 colon): 16 µM | TGI (HT29 colon): 35.7 µM | GI50 (NCI/ADR-RES ovarian): 46.1 µM | TGI (NCI/ADR-RES ovarian): > 100 µM | GI50 (UO-31 renal): 76 µM | TGI (UO-31 renal): > 100 µM | GI50 (RPMI-8226 leukemia): 0.0326 µM | TGI (RPMI-8226 leukemia): 1.23 µM | GI50 (TK-10 renal): 44 µM | TGI (TK-10 renal): > 100 µM | GI50 (SK-MEL-5 melanoma): 0.11 µM | TGI (SK-MEL-5 melanoma): 0.422 µM | GI50 (NCI-H460 NSCLC): 11.2 µM | TGI (NCI-H460 NSCLC): 25.5 µM | GI50 (DU-145 prostate): 2.3 µM | TGI (DU-145 prostate): 16.7 µM | GI50 (SR leukemia): 0.0253 µM | TGI (SR leukemia): 2.82 µM | GI50 (ACHN renal): > 100 µM | TGI (ACHN renal): > 100 µM | GI50 (SF-295 CNS): 11 µM | TGI (SF-295 CNS): 23.6 µM | GI50 (UACC-62 melanoma): 13.9 µM | TGI (UACC-62 melanoma): 27.5 µM | GI50 (SF-268 CNS): 13.2 µM | TGI (SF-268 CNS): 26 µM | GI50 (MDA-MB-435 melanoma): 0.0478 µM | TGI (MDA-MB-435 melanoma): 16.8 µM | GI50 (MCF7 breast): 1.84 µM | TGI (MCF7 breast): 5.7 µM | GI50 (NCI-H522 lung): 0.0634 µM | TGI (NCI-H522 lung): 2.93 µM | GI50 (OVCAR-5 ovarian): 19.1 µM | TGI (OVCAR-5 ovarian): 34.8 µM | GI50 (T-47D breast): 13.8 µM | TGI (T-47D breast): 28 µM
